Measurements as given in US20250250251A1, “PIPERIDINYLPYRIDINYLCARBONITRILE DERIVATIVES AS INHIBITORS OF GLUTAMINYL-PEPTIDE CYCLOTRANSFERASE AND GLUTAMINYL-PEPTIDE CYCLOTRANSFERASE LIKE PROTEIN” (Boehringer Ingelheim International GmbH, priority 2024, published 2025).

Tests used:
QPCTL = biological target: T1, QPCTL (Homo sapiens, UniProt Q9NXS2); assay: Assay A: biochemical QPCTL activity assay (MALDI-TOF MS, CD47 peptide substrate); conditions: Table 2, compounds of the invention, read-out: Inhibition of QPCTL: IC50
T1 construct: made in house
T1 sequence (Q9NXS2 whole entry, species assumed): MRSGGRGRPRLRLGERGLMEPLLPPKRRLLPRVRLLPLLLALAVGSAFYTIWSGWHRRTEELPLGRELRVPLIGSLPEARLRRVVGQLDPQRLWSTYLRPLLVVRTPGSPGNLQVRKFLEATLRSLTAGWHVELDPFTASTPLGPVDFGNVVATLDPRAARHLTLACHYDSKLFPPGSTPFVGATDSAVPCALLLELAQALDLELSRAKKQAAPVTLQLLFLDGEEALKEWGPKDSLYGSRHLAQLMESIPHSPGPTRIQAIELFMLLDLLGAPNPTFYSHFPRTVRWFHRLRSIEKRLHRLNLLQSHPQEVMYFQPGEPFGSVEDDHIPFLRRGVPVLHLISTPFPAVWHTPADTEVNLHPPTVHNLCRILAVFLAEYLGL
Method: (§1) QPCT or QPCTL dependent conversion of N-terminal glutamine to pyroglutamate of CD47 was monitored via MALDI-TOF MS. Test compounds were dissolved in 100% DMSO and serially diluted into clear 1,536-well microtiter plates. Enzymatic reactions were set up in assay buffer containing 20 mM Tris pH 7.5, 0.1 mM TCEP, 0.01% BSA, and 0.001% Tween20. […] The plates were incubated for 10 min in a humidified incubator at 24° C. Subsequently, 2.5 μL of CD47 peptide substrate surrogate (^19[…]^33) was added to each well (final concentration: 10 μM for QPCTL/20 μM for QPCT). The plates were mixed for 30 sec at 1,000 rpm and subsequently incubated for 40 min in a humidified incubator at 24° C. […] The plates were sealed with an adhesive foil, mixed for 30 s at 1,000 rpm and stored at room temperature until preparation of the MALDI target plates. MALDI target plates were prepared as described previously. […] QPCT or QPCTL activity was monitored by calculating the ratio between product and internal standard signals followed by normalization to high (100% activity) and low (0% activity) controls. Determination of compound potencies was obtained by fitting the dose-response data to a four-parameter logistical equation.

QPCT = biological target: T2, QPCT (Homo sapiens, UniProt Q16769); assay: Assay A: biochemical QPCT activity assay (MALDI-TOF MS, CD47 peptide substrate); conditions: Table 2, compounds of the invention, read-out: Inhibition of QPCT: IC50
T2 construct: purchased Origine (OriGene) TP700028
T2 sequence (Q16769 29-361): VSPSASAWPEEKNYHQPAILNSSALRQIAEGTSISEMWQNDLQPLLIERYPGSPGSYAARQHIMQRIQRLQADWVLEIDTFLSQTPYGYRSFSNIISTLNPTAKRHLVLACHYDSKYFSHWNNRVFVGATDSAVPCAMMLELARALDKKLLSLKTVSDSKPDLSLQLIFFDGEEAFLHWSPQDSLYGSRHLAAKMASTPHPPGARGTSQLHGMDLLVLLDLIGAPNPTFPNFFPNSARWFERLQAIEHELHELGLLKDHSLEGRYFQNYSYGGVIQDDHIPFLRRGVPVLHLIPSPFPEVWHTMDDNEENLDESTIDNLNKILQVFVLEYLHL
Method: as §1

[1] = system: SIRPα signalling induced by Raji cells; assay: Assay B: SIRPα signalling assay using Raji cells; assay type: cell-based; conditions: Homo sapiens, Table 4, compounds of the invention, read-out: Inhibition of SIRPα signalling induced by Raji cells: IC50
Method: Bioassay reagent 1 of the PathHunter Bioassay detection kit (DiscoverX 93-0001) was added to each well of the plate using a multichannel pipette followed by a 15 min incubation at room temperature. Afterwards bioassay reagent 2 was added followed by 60 min incubation at room temperature (incubation in the dark).
The analysis of the data was performed using the luminescence signal generated by beta-galactosidase in the PathHunter reporter cell line. The luminescence measurement was done using a Pherastar Multi-Mode Reader.

[2] = system: SIRPα signalling induced by A549 cells; assay: Assay B: SIRPα signalling assay using A549 cells; assay type: cell-based; conditions: Homo sapiens, Table 4, compounds of the invention, read-out: Inhibition of SIRPα signalling induced by A549 cells: IC50
Method: Two cell types are independently used: the Raji cell line (lymphoblast-like human cell line derived from B lymphocytes from a Burkitt's lymphoma patient in 1963) and A549 cells (adenocarcinoma human alveolar basal epithelial cells).
Test compounds were dissolved in 100% DMSO and serially diluted into a white 384-well microtiter cell culture plate (PerkinElmer #60076780 in case of Raji assay; PDL-coated plates Greiner #781945 in case of A549 assay). 5000 Raji cells (ATCC #CC86) or 5000 A549 cells (ATCC #CCL-185) in Assay Complete Cell Plating reagent 30 (DiscoverX 93-0563R30B) were added per well. The assay plate was incubated for 48 h at 37° C., 95% humidity and 5% CO2. 15000 reporter cells (Jurkat PathHunter SIRPαV1, DiscoverX #93-1135C19) were added to each well, and the plate was incubated for 5 h at 37° C., 95% humidity and 5% CO2. Bioassay reagent 1 of the PathHunter Bioassay detection kit (DiscoverX 93-0001) was added to each well of the plate using a multichannel pipette followed by a 15 min incubation at room temperature. Afterwards bioassay reagent 2 was added followed by 60 min incubation at room temperature (incubation in the dark).
The analysis of the data was performed using the luminescence signal generated by beta-galactosidase in the PathHunter reporter cell line. The luminescence measurement was done using a Pherastar Multi-Mode Reader. Dose-response curves & IC50 data were calculated with 4-parameter sigmoidal dose response formula.

[3] = Assay C: permeability in CACO-2 cells; assay type: in vitro ADME; conditions: human, pH 7.2, Table 7, compounds of the invention, CACO-2 cells; for efflux ratio: permeability B-A/permeability A-B, read-out: Efflux Ratio
Method: Caco-2 cells (1-2×10^5 cells/1 cm^2 area) are seeded on filter inserts (Costar transwell polycarbonate or PET filters, 0.4 μm pore size) and cultured (DMEM) for 10 to 25 days. Compounds are dissolved in appropriate solvent (like DMSO, 1-20 mM stock solutions). […] The transport solution (TL) is applied to the apical or basolateral donor side for measuring A-B or B-A permeability (3 filter replicates), respectively. Samples are collected at the start and end of experiment from the donor and at various time intervals for up to 2 hours also from the receiver side for concentration measurement by HPLC-MS/MS or scintillation counting. Sampled receiver volumes are replaced with fresh receiver solution.
Efflux ratio (ER)=permeability B−A/permeability A−B

CYP3A4 mRNA = assay: Assay D: CYP induction screening assay in primary human hepatocytes; assay type: in vitro ADME; conditions: Table 9, compounds of the invention, 48 h
Method: Cryopreserved plateable human hepatocytes (single donor. BioIVT) were thawed and plated in Collagen-I coated 96-well-plates at a cell density of 0.07 million cells per well.
After a 6 h attachment period, the seeding medium was replaced by serum-free William's medium E supplemented with Matrigel (0.25 mg/ml) and allowed to recover overnight. 24 h post-seeding, serum-free Williams E medium containing the test compound at a final concentration of […] and a final DMSO content of 0.1% and 0.1% DMSO (solvent-treated control), respectively, was added to predefined wells. Exposure solutions were renewed after 24 h.
After 48 h of treatment in total, the effect of the test compounds on CYP3A4 mRNA expression was assessed using the QuantiGene Plex Gene Expression Assay. Hepatocytes were lysed and total RNA was extracted using the QuantiGene Sample Processing Kit according to the instructions of the manufacturer.
mRNA quantification was conducted using a customized QuantiGene Plex Panel to analyse CYP3A4 and the housekeeper genes RPL32, EIF4E2 and GUSB according to the instructions of the manufacturer and measured on a Luminex™ instrument. Signal was reported as median fluorescence intensity (MFI), which is proportional to the number of target RNA molecules present in the sample.
For calculation of CYP3A4 mRNA induction, the signal for CYP3A4 was normalized against the geometric mean of the signal obtained for the housekeeper genes for hepatocytes exposed to test compounds in relation to solvent-treated samples according to the following equation: […]

murine hepatocytes = assay: Assay E: stability in murine hepatocytes; assay type: in vitro ADME, mouse; conditions: Table 12, compounds of the invention, 1 μM, 5% species serum
Method: The metabolic degradation of the test compound is assayed in a murine hepatocyte suspension.
Murine hepatocytes (typically cryopreserved) are incubated in an appropriate buffer system (e.g. Dulbecco's modified eagle medium plus 3.5 μg glucagon/500 mL, 2.5 mg insulin/500 mL and 3.75 mg/500 mL hydrocortison) containing 5% species serum.
Following a (typically) 30 min preincubation in an incubator (37° C., 10% CO2) 5 μl of test compound solution (80 μM; from 2 mM in DMSO stock solution diluted 1:25 with medium) are added into 395 μl hepatocyte suspension (cell density in the range 0.25-5 Mio cells/mL, typically 1 Mio cells/mL; final concentration of test compound 1 μM, final DMSO concentration 0.05%).
The cells are incubated for six hours (incubator, orbital shaker) and samples (25 μl) are taken at 0, 0.5, 1, 2, 4 and 6 hours. Samples are transferred into acetonitrile and pelleted by centrifugation (5 min). The supernatant is transferred to a new 96-deepwell plate, evaporated under nitrogen and resuspended.
Decline of parent compound is analyzed by HPLC-MS/MS
CLint is calculated as follows CL_[…]=Dose/AUC=(C0/CD)/(AUD+clast/k)×1000/60. C0: initial concentration in the incubation [μM], CD: cell density of vital cells [10e6 cells/mL], AUD: area under the data [μM×h], clast: concentration of last data point [μM], k: slope of the regression line for parent decline [h−1].
The calculated in vitro hepatic intrinsic clearance can be scaled up to the intrinsic in vivo hepatic Clearance and used to predict hepatic in vivo blood clearance (CL) by the use of a liver model (well stirred model).
[formula] [formula] [formula] • Hepatocellularity, mouse: 120×10e6 cells/g liver • Liver factor, mouse: 55 g/kg bodyweight • Blood flow, mouse: 90 ml/(min×kg)

Row | Structure (SMILES) | IC50 (QPCTL) | IC50 (QPCT) | IC50 [1] | IC50 [2] | Papp A→B [3] | efflux ratio [3] | n-fold induction of CYP3A4 at 10 μM (CYP3A4 mRNA) | Mouse Hepatocyte Stability QH (murine hepatocytes)
1 | Cn1cnnc1C1(F)CCN(c2c(C#N)cc(-c3ccc(F)cc3)nc2-c2ccnnc2)CC1 [Example 18] | 4 nM | 5 nM | 262 nM | 82 nM | 2.3 ×10⁻⁶ cm/s | 17 | 1.3 n-fold | 44%
2 | Cn1cnnc1C1(F)CCN(c2c(C#N)cc(C(F)(F)F)nc2-c2cnc3nn(C)c(C(F)(F)F)c3c2)CC1 [Example 10] | 8 nM | 13 nM | 160 nM | 49 nM | 11 ×10⁻⁶ cm/s | 6.6 | 5.2 n-fold | 53%
3 | Cn1cnnc1C1(F)CCN(c2c(C#N)cc(C(F)(F)F)nc2-c2cnc3nn(C(C)(C)C)cc3c2C(F)F)CC1 [Example 15] | 12 nM | 9 nM | 3 nM | 1 nM | 7.6 ×10⁻⁶ cm/s | 10.9 | 14.2 n-fold | <12%
4 | Cn1cnnc1C1(F)CCN(c2c(C#N)cc(C3CC3(F)F)nc2-c2ccnnc2)CC1 (stereo not drawn) [Example 6] | 2 nM | 6 nM | 226 nM | 82 nM | 0.6 ×10⁻⁶ cm/s | 36.1 | 0.6 n-fold | <12%
5 | Cn1cnnc1C1(F)CCN(c2c(C#N)cc(-c3cccnc3)nc2-c2cnc3nn(C(F)(F)F)cc3c2)CC1 [Example 21] | 1 nM | 2 nM | 78 nM | 24 nM | 6.8 ×10⁻⁶ cm/s | 11.9 | 0.7 n-fold | 35%
6 | Cc1ccc(-c2cc(C#N)c(N3CCC(F)(c4nncn4C)CC3)c(-c3cnc4nn(C(F)(F)F)cc4c3)n2)cn1 [Example 22] | 1 nM | 3 nM | 130 nM | 17 nM | 12 ×10⁻⁶ cm/s | 6.8 | 0.5 n-fold | 17%
7 | Cc1cc(C#N)c(N2CCC(F)(c3nncn3C)CC2)c(-c2cnc3nn(C(F)(F)F)cc3c2)n1 [Example 5] | 1 nM | 3 nM | 31 nM | 6 nM | 3.3 ×10⁻⁶ cm/s | 13 | 2.1 n-fold | 16%
8 | Cn1cnnc1C1(F)CCN(c2c(C#N)cc(C(C)(F)F)nc2-c2cnc3nn(C(F)(F)F)cc3c2)CC1 [Example 3] | 3 nM | 3 nM | 10 nM | 7 nM | 11 ×10⁻⁶ cm/s | 6.4 | 4.2 n-fold | <12%
9 | Cc1nn(C)cc1-c1cc(C#N)c(N2CCC(F)(c3nncn3C)CC2)c(-c2cnc3nn(C(F)(F)F)cc3c2)n1 [Example 17] | 2 nM | 2 nM | 69 nM | 22 nM | 5.1 ×10⁻⁶ cm/s | 9.4 | 3.0 n-fold | 18%
